We go through 1 substance from patent US20060029544A1, “Receptor-binding cyclic peptides and methods of use” (The Regents of the University of California Office of …, priority 2004, published 2006).

This experiment deals with A375M melanoma cell line. Put plainly: Adhesion assay: [51Cr]-A375M cells to laminin. Type of experiment: cell-based, human. As to conditions: 200 μM peptide. The method, then: RGD peptides were plated at a maximum concentration of 200 μM and a minimum concentration of 2 nM. For each RGD peptide sequence, linear peptides (A), cyclic peptides (B), and 4-[^19F]-fluorobenzoyl cyclic peptides (C) were assayed. Each RGD peptide concentration was performed in quadruplicate and each experiment was repeated twice.
Plastic 96-well plates (Falcon 3912; Becton Dickinson) were coated with 50 μl substrate (10 μg/ml laminin or 5 μg/ml vitronectin). The plates were incubated at 37° C. in an 8% CO2 atmosphere for 1 hour. Unbound protein was flicked off and the plates were washed with phosphate buffered saline (PBS) and blocked with bovine serum albumin (0.1% w/v BSA)/PBS/0.1% sodium azide) for 1 hour. The plates were then washed with PBS, placed on a bed of ice and 25 μl of peptide was added to the wells.
Sodium [^51Cr] chromate was purchased from Amersham International, UK. The solution was made isotonic by the addition of 110 μl 10× Hanks buffered salt solution. 100 μl of this solution (3.7 MBq) was added to 5-10×10^6 cells in 500 μl of serum-containing growth medium. The suspension was incubated at 37° C. for 45 minutes with regular agitation to resuspend the cells. The cells were then washed and spun 3 times with serum-free E4 medium to remove any free [^51Cr]chromium. A trypan blue viability count was performed and the cells were diluted to the necessary volume in serum-free E4 medium (4×10^5 cells/ml).
25 μl (about 10,000 cells) were added to each quadruplicate well and the plates incubated at 37° C. in an 8% CO2 atmosphere for 1 hour. Unbound cells were flicked off and the plates were washed twice with PBS/BSA containing 1 mM CaCl2 and 0.5 mM MgCl2. The plates were dabbed dry and cut into individual wells. The radioactivity associated with each well was determined in a gamma counter (1261 Multigamma; Wallac, Sweden). Quadruplicate 25 μl samples of labeled cells were counted as 100% input values. To determine non-specific binding, the ability of cells to bind BSA-coated wells was also assessed. Data for these wells are referred to as background.
The results were calculated as follows: [formula] [formula] NMR Spectroscopy of RGD Peptides
The A375M and VUP melanoma cell lines were used with vitronectin and laminin as substrates. Peptides were titrated in 10-fold dilutions from 200 μM to 2 nM. All data were normalized to the absence of peptide, which corresponded to 100% adhesion. All titrations were performed in quadruplicate and each experiment was repeated at least twice.

Consider RGDY(OMe)K [B7], for which the “adhesion of [51Cr]-A375M cells to laminin, normalized to absence of peptide (100%)” value was 50.40%±1.24%.
